Measurements reported in patent publication US20060217375A1, “New compounds” (priority 2004, published 2006).

What was measured:
human OX-1R = target: T1, human OX-1R (Homo sapiens, UniProt O43613); assay: Functional Ki determination: inhibition of orexin-A induced Ca2+ release (FLIPR, Fluo-4AM) in HEK293EBNA cells stably expressing OX-1R; format: cell-based
T1 construct: expressed in transfected cells; host or cells: HEK293EBNA
T1 sequence (O43613 1-425): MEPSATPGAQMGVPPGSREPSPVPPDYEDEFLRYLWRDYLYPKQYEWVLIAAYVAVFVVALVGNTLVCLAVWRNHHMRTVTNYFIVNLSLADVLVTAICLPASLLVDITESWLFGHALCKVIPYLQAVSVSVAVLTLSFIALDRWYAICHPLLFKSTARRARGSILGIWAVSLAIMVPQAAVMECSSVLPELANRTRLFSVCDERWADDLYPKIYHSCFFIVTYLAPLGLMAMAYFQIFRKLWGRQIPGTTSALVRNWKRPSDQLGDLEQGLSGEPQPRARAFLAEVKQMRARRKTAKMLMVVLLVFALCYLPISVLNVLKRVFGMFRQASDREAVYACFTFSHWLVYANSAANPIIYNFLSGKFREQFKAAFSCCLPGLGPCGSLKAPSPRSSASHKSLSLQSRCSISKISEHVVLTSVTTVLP
Method: Human embryonic kidney (HEK293EBNA) cells stably expressing OX-1R seeded in 96- or 384-well plates are pre-loaded with Ca^2+ sensing probe Fluo-4AM fluorescent dye for 60 min before addition of test compounds (10 μM for primary screen). Fluorescent intensity, which is a measurement of Ca^2+ concentration inside the cells, is recorded using a Fluorometric imaging plate reader (FLIPR 98R 96-well format or FLIPR 3, 384-well format, Molecular Devices) and inhibition of the peak response evoked by orexin-A (EC70 concentration) is calculated. Potency (Ki) determinations are performed utilizing the same functional assay as described for primary screening, applying the compounds in the concentration range of 340 pM to 20 μM and recording the concentration resulting in a 50% inhibition of orexin-A induced Ca^2+ release (IC50) and from there calculating the inhibition constant (Ki).
The calculation of the functional Ki values for the inhibitors was performed by use of Activity Base. The Ki value is calculated from IC50 using the Cheng Prushoff equation (with reversible inhibition that follows the Michaelis-Menten equation): Ki=IC50/(1+[S]/Km) (Cheng, Y. C. & Prushoff, W. H. (1973) Biochem. Pharmacol. 22:3099-3108).

rats = settings: i.p.; cited from earlier work
ob/ob mice = settings: 30 mg/kg i.p. once daily for 7 days plus twice daily for another 7 days; cited from earlier work

**Q.** Which Ki (human OX-1R) does the source give for `COc1cc(-c2ccc3c(c2)OC2(CCNCC2)O3)cc(OC)c1OC` [Example 4, 5-(3,4,5-trimethoxyphenyl)spiro[1,3-benzodioxole-2,4′-piperidine]] here?
**A.** 823 nM

**Q.** Which behavioral satiety sequence (rats) does the source give for `Cc1nc2ccc(NC(=O)Nc3ccnc4cccnc34)cc2o1` [SB-334867] here?
**A.** advances the behavioral satiety sequence increasing the time the animals spend resting

**Q.** What about the body weight gain (ob/ob mice) of the same compound?
**A.** suppressed

**Q.** What about the cumulative food intake (ob/ob mice) of the same compound?
**A.** suppressed

**Q.** What about the lean body mass (ob/ob mice) of the same compound?
**A.** unchanged

**Q.** What about the total fat mass (ob/ob mice) of the same compound?
**A.** reduced

**Q.** Which Ki (human OX-1R) does the source give for `O=C(COc1cccc(-c2ccc3c(c2)COC2(CCNCC2)O3)c1)Nc1ccccc1` [Example 8, N-phenyl-2-[3-(4H-spiro[1,3-benzodioxine-2,4′-piperidin]-6-yl)phenoxy]acetamide] here?
**A.** 253 nM

**Q.** For `COc1cc(-c2ccc3c(c2)COC2(CCNCC2)O3)cc(OC)c1OC` [Example 2, 6-[3,4,5-trimethoxyphenyl]-4H-spiro[1,3-benzodioxine-2,4′-piperidine]], which Ki (human OX-1R) is on record?
**A.** 349 nM
